Where “and” joins values, the source holds several entries; their conditions need not be identical. Equal values may be shown once.
Experiments:
Format in all cases: functional, Homo sapiens
Set-up in all cases: dose or concentration left out as unconfirmed
Colon cancer organoid [1] = test: (§1) Image-based profiling of donated chemical probes and chemogenomic kinase set in O09 CRC organoid. Image analysis is performed on the sum area metric, and the data were normalized to the DMSO control. After imaging the organoid viability is measured using the OneGloEX Luciferase Assay System. The normalized viability data and sum area are reported.
Colon cancer organoid [2] = test: as §1, with “O21” for “O09”
Colon cancer organoid [3] = test: as §1, with “O06” for “O09”

| SMILES | Cell Viability (Colon cancer organoid [1]; Replication number 1) | Cell Viability (Colon cancer organoid [1]; Replication number 2) | Cell Viability (Colon cancer organoid [2]; Replication number 1) | Cell Viability (Colon cancer organoid [2]; Replication number 2) | Cell Viability (Colon cancer organoid [3]; Replication number 1) | Cell Viability (Colon cancer organoid [3]; Replication number 2) |
| --- | --- | --- | --- | --- | --- | --- |
| CC(=O)c1c(NS(C)(=O)=O)c2cc(-c3ccc(Cl)cc3)c(-c3ccc(Cl)cc3Cl)nc2n(C)c1=O [MRL-CB1-NC] | 160.352% and 102.495% | 132.682% and 100.183% | 126.549% and 100.129% | 108.062% and 94.898% | 116.774% and 92.5059% | 73.5946% and 87.6518% |
| Cc1ccc(-c2cnc([C@@]3(O)CC[C@H](C(=O)O)C(C)(C)C3)s2)cc1Nc1cccc(C(F)(F)F)n1 [MRL-SYKi-NC] | 109.363% and 85.7712% | 161.475% and 115.078% | 112.056% and 96.0543% | 96.6815% and 86.7347% | 90.9085% and 96.9555% | 94.2486% and 84.0983% |
| COc1cc(C(=O)O)ncc1C#Cc1ccccc1NS(=O)(=O)c1cccc2c(N(C)C)ccnc12 [MSC-0516] | 106.133% and 95.2857% | 130.736% and 112.411% | 88.3697% and 90.0327% | 92.8274% and 92.794% | 100.098% and 102.024% | 96.9075% and 85.7761% |
| FC(F)(F)c1ccc2c(c1)nc(-c1cccnc1)n2C1CC1 [MSD-CYP11B2-Negative-control] | 82.6005% and 103.914% | 111.8% and 104.679% | 89.0845% and 95.4893% | 78.0159% and 105.031% | 82.4588% and 96.4372% | 50.7409% and 62.2297% |
| CC(C)(O)c1cncc(-c2nc3ccc(F)cc3n2C2CC2)c1 [MSD-CYP11B2] | 85.3446% and 107.103% | 121.971% and 103.489% | 108.022% and 122.772% | 100.134% and 120.326% | 79.0545% and 113.441% | 106.294% and 130.706% |
| N#CC1(c2ccccn2)CCN(Cc2cc(C(=O)N3CCCC3)c(=O)n3ccccc23)CC1 [MSD-M1PAM-NC] | 69.2847% and 91.5343% | 101.66% and 96.3521% | 100.616% and 90.5784% | 99.0735% and 86.6757% | 114.688% and 98.8664% | 108.691% and 97.5493% |
| CC(=O)Nc1c(C(C)=O)c(=O)n(C)c2nc(-c3ccc(Cl)cc3Cl)c(-c3ccc(Cl)cc3)cc12 [NAPHTHYRIDINONE] | 117.091% and 130.21% | 64.3844% and 79.7371% | 94.8536% and 101.294% | 91.9114% and 85.7143% | 123.545% and 117.564% | 103.77% and 94.7587% |
| CO[C@@H](C)c1c(Nc2ccc([C@@H](N(C)C(=O)C3CCS(=O)(=O)CC3)C(F)(F)F)cc2)cnc2cc(Cl)nn12 [NVS-MALT1-C] | 63.1352% and 96.7863% | 75.29% and 89.0167% | 68.6015% and 94.398% | 97.4598% and 109.109% | 48.3396% and 100.567% | 78.0608% and 112.446% |
| CO[C@@H](C)c1c(Nc2ccc([C@H](N(C)C(=O)C3CCS(=O)(=O)CC3)C(F)(F)F)cc2)cnc2cc(Cl)nn12 [NVS-MALT1] | 78.0421% and 97.349% | 96.1339% and 95.7573% | 116.026% and 99.8545% | 97.0711% and 89.225% | 53.942% and 90.6073% | 65.826% and 102.355% |
| COc1ncc(-c2ccc3nccc(-c4ccnnc4)c3c2)cc1NS(=O)(=O)c1ccc(F)cc1F [OMIPALISIB] | 14.1746% and 4.189% | 12.1613% and 4.9671% | 14.5309% and 34.1185% | – | 2.947% and 9.014% | 1.718% and 5.799% |
| Nc1nc(NCc2ccccc2)nc(-c2ccccc2CO)n1 [Ogerin] | 84.1314% and 95.0982% | 82.0321% and 100.912% | 116.019% and 92.2153% | 95.1453% and 93.8137% | 105.073% and 119.514% | 91.1794% and 124.7% |
| OCCn1cc(-c2cnc3nnn(Cc4ccc5ncccc5c4)c3n2)cn1 [PF-04217903] | 126.877% and 95.995% | 92.9183% and 79.3656% | 106.76% and 119.861% | 108.21% and 119.755% | 92.042% and 100.376% | 104.418% and 102.005% |
| C[C@H](c1ccc(F)cc1)N(Cc1cccc(C(=O)O)c1)C(=O)c1cnc2ccccc2c1 [PF-05105679] | 96.3652% and 120.892% | 63.8781% and 75.356% | 102.98% and 107.115% | 83.9126% and 93.8775% | 106.225% and 110.304% | 129.169% and 147.587% |
| C[C@H](c1ccc(F)cc1)N(Cc1ccc(Cl)c(C(=O)O)c1)C(=O)c1cnc2ccccc2c1 [PF-05257137] | 171.765% and 153.146% | 140.713% and 101.643% | 104.015% and 83.2471% | 99.7446% and 91.3265% | 112.636% and 114.286% | 58.4583% and 44.0628% |
| CS(=O)(=O)N1CCN(Cc2cc3nc(-c4cccc5[nH]ncc45)nc(N4CCOCC4)c3s2)CC1 [PICTILISIB] | 49.7053% and 32.4139% | 55.1776% and 34.8237% | 58.3035% and 68.0139% | 64.7873% and 89.8165% | 32.227% and 73.4455% | 23.961% and 57.7892% |
| COc1ncc(F)cc1CNc1ccc(Cc2c[nH]c3ncc(C)cc23)c(F)n1 [PLX-5622] | 193.371% and 111.454% | 159.434% and 112.03% | 106.139% and 77.4913% | 117.508% and 96.7254% | 113.45% and 123.522% | 100.072% and 108.792% |
| Cc1noc(C)c1-c1cnc2c(-c3ccc(C(=O)O)cc3)cn([C@@H](C)c3ccccn3)c2c1 [PLX-51107] | 42.9449% and 37.558% | 38.2971% and 35.6351% | 101.544% and 130.503% | 74.8766% and 126.73% | 28.5018% and 57.9866% | 31.105% and 59.0281% |
| CC(C)(C)c1cc(NC(=O)Nc2ccc(-c3cn4c(n3)sc3cc(OCCN5CCOCC5)ccc34)cc2)no1 [QUIZARTINIB] | 85.316% and 55.6023% | 92.2589% and 77.476% | 67.5016% and 73.0314% | 71.418% and 77.7258% | 39.693% and 48.7411% | 34.5672% and 63.5476% |
| CN(C)C(=O)c1cc2cnc(Nc3ccc(N4CCNCC4)cn3)nc2n1C1CCCC1 [RIBOCICLIB] | 49.4558% and 44.8808% | 42.3849% and 44.8119% | 76.3687% and 83.6237% | 91.6892% | 18.4025% and 48.7411% | 14.7054% and 40.1028% |
| O=C(CCCCCCNC(=O)c1cnc(N(c2ccccc2)c2ccccc2)nc1)NO [RICOLINOSTAT] | – | 236.119% and 135.984% | 136.698% and 150.49% | 122.116% and 112.232% | 107.943% and 108.966% | 120.178% and 118.056% |
| C=CC(=O)Nc1ccc2[nH]c(=O)n(C3CCN(Cc4ccc(-c5ccc6c(c5)NC(=O)CO6)cc4)CC3)c2c1 [RL2578] | 79.7893% and 107.853% | 131.51% and 111.42% | 100.847% and 118.952% | 88.0648% and 119.816% | 82.8871% and 90.6073% | 145.126% and 114.128% |
| CN(C)CCOc1ccc(-c2nc(-c3ccncc3)c(-c3ccc4c(c3)CC/C4=N\O)[nH]2)cc1 [SB590885] | 91.6254% and 70.3132% | 62.6087% and 63.1686% | 87.754% and 100.348% | 97.8507% and 97.8769% | 179.76% and 135.095% | 115.548% and 114.756% |
| CC[C@H](CO)Nc1nc(NCc2ccccc2)c2ncn(C(C)C)c2n1 [SELICICLIB] | 133.303% and 96.4937% | 129.12% and 84.4947% | 79.2225% and 95.8885% | 112.922% and 92.6952% | 146.934% and 137.321% | 92.4206% and 95.8355% |
| C[C@@H]1CCc2ncc(F)cc2[C@H]2CCCN2c2ccn3ncc(c3n2)C(=O)N1 [SELITRECTINIB] | 111.995% and 102.727% | 91.1731% and 73.4267% | 119.212% and 110.383% | 103.521% and 97.8769% | 134.929% and 121.742% | 93.5037% and 107.969% |
| Cc1cc(F)c(C(=O)Nc2cccc(-c3nncn3C(C)C)n2)cc1-n1cnc(C2CC2)c1 [SELONSERTIB] | 115.111% and 84.0268% | 104.846% and 82.0651% | 96.1672% and 86.9686% | 76.8515% and 83.4833% | 102.175% and 96.1469% | 88.4921% and 93.9846% |
| Cn1cnc2c(F)c(Nc3ccc(Br)cc3Cl)c(C(=O)NOCCO)cc21 [SELUMETINIB] | 59.0124% and 83.6445% | 134.387% and 96.018% | 30.9074% and 27.5425% | 36.6071% and 40.747% | 17.7792% and 31.8399% | 27.9489% and 57.8656% |
